Experimental data published in ChEMBL document CHEMBL4765420, “Design, synthesis and biological evaluation of novel HDAC inhibitors with improved pharmacokinetic profile in breast cancer” (Eur J Med Chem, 2020).
Active and inactive are the calls of the source. The calls are words filed in the database; no cut-off is given here.

Assays:
MDA-MB-231 [1] = experiment: Induction of apoptosis in human MDA-MB-231 cells assessed as necrotic cells at 2.5 uM measured after 24 hrs by Annexin-V/propidium iodide staining based flow cytometry (reference value: 0.22 to 0.46%); format: functional
MDA-MB-231 [2] = experiment: Inhibition of cell migration in human MDA-MB-231 cells at 2.5 to 10 uM measured after 24 hrs using crystal violet staining by phase-contrast microscopy based transwell assay; format: functional; details: dose 2.5-10 µM
MDA-MB-231 [3] = experiment: Induction of autophagy in human MDA-MB-231 cells expressing GFP-mRFP-LC3 assessed as increase in LC3 punta aggregation at 2.5 to 10 uM measured after 24 hrs by immunofluorescence assay; format: functional, cell-based; details: dose 2.5-10 µM
Histone deacetylase 4 = Histone deacetylase 4 (Homo sapiens, UniProt P56524); experiment: Inhibition of recombinant human N-terminal GST-tagged HDAC4 (627 to end residues) expressed in baculovirus infected Sf9 insect cells using AcLeu-Gly-Lys(Tfa)-AMC as substrate measured after 30 mins by fluorescence assay
MDA-MB-231 [4] = experiment: Induction of apoptosis in human MDA-MB-231 cells assessed as early apoptotic cells at 5 uM measured after 24 hrs by Annexin-V/propidium iodide staining based flow cytometry (reference value: 0.69 to 0.92%); format: functional
MDA-MB-231 [5] = experiment: Induction of apoptosis in human MDA-MB-231 cells measured after 24 hrs by Annexin-V/propidium iodide staining based flow cytometry; format: functional, cell-based
MDA-MB-231 [6] = experiment: Induction of apoptosis in human MDA-MB-231 cells assessed as up regulation of Bax expression at 2.5 to 10 uM measured after 24 hrs by Western blot analysis; format: functional, cell-based; details: dose 2.5-10 µM
MDA-MB-231 [7] = experiment: Induction of apoptosis in human MDA-MB-231 cells assessed as increase in cleaved caspase-9 expression at 2.5 to 10 uM measured after 24 hrs by Western blot analysis; format: functional, cell-based; details: dose 2.5-10 µM
MDA-MB-231 [8] = experiment: Induction of apoptosis in human MDA-MB-231 cells assessed as late apoptotic cells at 10 uM measured after 24 hrs by Annexin-V/propidium iodide staining based flow cytometry (reference value: 0.71 to 2.94%); format: functional
Histone deacetylase 8 = biological target: T1, Histone deacetylase 8 (Homo sapiens, UniProt Q9BY41); experiment: Inhibition of recombinant human full-length C-terminal His-tagged HDAC8 expressed in baculovirus infected Sf9 insect cells using Ac-Leu-Gly-Lys(Tfa)-AMC as substrate measured after 30 mins by fluorescence assay
T1 sequence (Q9BY41 whole entry): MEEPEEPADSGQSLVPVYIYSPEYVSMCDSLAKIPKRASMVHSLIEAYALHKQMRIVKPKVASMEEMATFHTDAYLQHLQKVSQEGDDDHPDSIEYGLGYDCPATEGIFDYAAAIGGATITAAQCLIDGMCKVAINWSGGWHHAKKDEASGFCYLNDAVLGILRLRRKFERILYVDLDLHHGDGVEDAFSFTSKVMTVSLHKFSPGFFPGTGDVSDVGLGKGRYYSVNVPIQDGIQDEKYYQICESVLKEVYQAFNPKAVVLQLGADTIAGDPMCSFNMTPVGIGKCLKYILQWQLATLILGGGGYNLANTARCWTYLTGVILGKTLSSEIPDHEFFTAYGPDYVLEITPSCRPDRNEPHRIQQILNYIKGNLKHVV

MDA-MB-231 [9] = experiment: Induction of apoptosis in human MDA-MB-231 cells assessed as early apoptotic cells at 10 uM measured after 24 hrs by Annexin-V/propidium iodide staining based flow cytometry (reference value: 0.69 to 0.92%); format: functional
MDA-MB-231 [10] = experiment: Induction of apoptosis in human MDA-MB-231 cells assessed as down regulation of Bcl-2 expression at 2.5 to 10 uM measured after 24 hrs by Western blot analysis; format: functional, cell-based; details: dose 2.5-10 µM
MDA-MB-231 [11] = experiment: Induction of apoptosis in human MDA-MB-231 cells assessed as necrotic cells at 10 uM measured after 24 hrs by Annexin-V/propidium iodide staining based flow cytometry (reference value: 0.22 to 0.46%); format: functional
MDA-MB-231 [12] = experiment: Induction of endoplasmic reticulum stress in human MDA-MB-231 cells assessed as increase in PERK expression at 2.5 to 10 uM measured after 24 hrs by Western blot analysis; format: functional, cell-based; details: dose 2.5-10 µM
MDA-MB-231 [13] = experiment: Antiproliferative activity against human MDA-MB-231 cells measured after 72 hrs by MTT assay; format: functional, cell-based; details: MDA-MB-231, 72 h
Histone deacetylase 7 = biological target: T2, Histone deacetylase 7 (Homo sapiens, UniProt Q8WUI4); experiment: Inhibition of HDAC7 (unknown origin) using AcLeu-Gly-Lys(Tfa)-AMC as substrate measured after 30 mins by fluorescence assay
T2 sequence (Q8WUI4 whole entry): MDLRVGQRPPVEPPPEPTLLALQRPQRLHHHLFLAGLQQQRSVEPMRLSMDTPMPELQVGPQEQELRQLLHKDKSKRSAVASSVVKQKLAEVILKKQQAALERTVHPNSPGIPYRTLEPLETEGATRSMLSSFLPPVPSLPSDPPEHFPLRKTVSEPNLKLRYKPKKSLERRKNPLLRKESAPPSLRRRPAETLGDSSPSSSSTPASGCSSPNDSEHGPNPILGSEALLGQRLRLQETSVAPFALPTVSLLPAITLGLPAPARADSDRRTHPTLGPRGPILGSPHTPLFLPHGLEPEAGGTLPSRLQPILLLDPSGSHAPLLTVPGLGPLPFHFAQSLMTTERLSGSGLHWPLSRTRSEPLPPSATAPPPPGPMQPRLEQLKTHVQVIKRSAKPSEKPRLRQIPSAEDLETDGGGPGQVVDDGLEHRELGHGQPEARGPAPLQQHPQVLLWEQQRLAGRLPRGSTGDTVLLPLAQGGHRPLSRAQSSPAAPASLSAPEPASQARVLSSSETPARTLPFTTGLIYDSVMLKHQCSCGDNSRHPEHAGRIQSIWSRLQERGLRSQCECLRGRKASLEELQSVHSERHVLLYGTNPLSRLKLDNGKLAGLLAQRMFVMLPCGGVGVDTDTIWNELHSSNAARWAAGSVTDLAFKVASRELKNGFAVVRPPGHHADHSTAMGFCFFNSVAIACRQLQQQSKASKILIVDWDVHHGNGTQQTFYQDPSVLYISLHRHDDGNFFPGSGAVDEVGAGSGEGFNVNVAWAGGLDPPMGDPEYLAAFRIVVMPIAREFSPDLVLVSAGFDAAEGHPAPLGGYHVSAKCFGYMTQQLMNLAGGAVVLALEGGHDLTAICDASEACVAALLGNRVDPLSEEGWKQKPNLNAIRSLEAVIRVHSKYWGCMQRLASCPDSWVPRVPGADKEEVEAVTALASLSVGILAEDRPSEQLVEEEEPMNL

MDA-MB-231 [14] = experiment: Inhibition of cell migration in human MDA-MB-231 cells assessed as increase in E-cadherin expression at 2.5 to 10 uM measured after 24 hrs Western blot analysis; format: functional, cell-based; details: dose 2.5-10 µM

Chain of Histone deacetylase 4 (P56524 whole entry): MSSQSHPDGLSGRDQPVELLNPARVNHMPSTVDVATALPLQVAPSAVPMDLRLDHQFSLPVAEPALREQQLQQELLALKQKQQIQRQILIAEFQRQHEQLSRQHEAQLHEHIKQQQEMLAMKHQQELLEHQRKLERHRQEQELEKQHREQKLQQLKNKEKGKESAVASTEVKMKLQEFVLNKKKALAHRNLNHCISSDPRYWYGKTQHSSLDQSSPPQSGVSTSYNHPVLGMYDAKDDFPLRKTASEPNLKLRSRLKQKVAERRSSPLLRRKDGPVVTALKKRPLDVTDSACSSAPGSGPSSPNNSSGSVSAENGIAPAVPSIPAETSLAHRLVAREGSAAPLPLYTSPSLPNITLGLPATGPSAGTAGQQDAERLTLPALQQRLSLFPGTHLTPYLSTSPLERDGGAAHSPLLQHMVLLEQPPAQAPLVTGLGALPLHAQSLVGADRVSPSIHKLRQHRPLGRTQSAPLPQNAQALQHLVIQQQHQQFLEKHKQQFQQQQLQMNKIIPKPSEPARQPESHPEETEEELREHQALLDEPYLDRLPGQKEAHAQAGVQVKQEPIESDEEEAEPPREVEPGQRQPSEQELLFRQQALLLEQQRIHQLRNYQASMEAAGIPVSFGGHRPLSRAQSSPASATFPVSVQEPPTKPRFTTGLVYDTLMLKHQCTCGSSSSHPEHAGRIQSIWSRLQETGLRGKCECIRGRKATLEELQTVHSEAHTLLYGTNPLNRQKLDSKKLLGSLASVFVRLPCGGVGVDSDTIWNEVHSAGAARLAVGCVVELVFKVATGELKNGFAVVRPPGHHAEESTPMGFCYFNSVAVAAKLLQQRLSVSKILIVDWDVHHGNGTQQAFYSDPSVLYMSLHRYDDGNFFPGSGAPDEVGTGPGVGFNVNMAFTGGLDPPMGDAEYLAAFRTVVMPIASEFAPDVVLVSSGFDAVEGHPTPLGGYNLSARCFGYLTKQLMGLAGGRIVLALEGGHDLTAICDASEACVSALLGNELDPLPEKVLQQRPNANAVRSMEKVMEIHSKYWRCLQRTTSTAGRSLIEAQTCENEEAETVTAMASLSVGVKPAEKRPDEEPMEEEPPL

- IC50 (Histone deacetylase 4): > 1000 nM
- IC50 (Histone deacetylase 8): 404 nM
- IC50 (MDA-MB-231 [13]): 898 nM
- IC50 (Histone deacetylase 7): > 1000 nM
SMILES: COc1cc(OC)c2c(N3CCS(=O)(=O)CC3)nc(-c3cc(C)c(OCCCCCC(=O)NO)c(C)c3)nc2c1
- Activity (MDA-MB-231 [1]): 1.05%
- inhibition (MDA-MB-231 [2]): Active
- Activity (MDA-MB-231 [3]): Active
- Activity (MDA-MB-231 [4]): 16.28%
- Activity (MDA-MB-231 [5]): Dose-dependent effect
- Activity (MDA-MB-231 [6]): Active
- Activity (MDA-MB-231 [7]): Active
- Activity (MDA-MB-231 [8]): 35.5%
- Activity (MDA-MB-231 [9]): 38.66%
- Activity (MDA-MB-231 [10]): Active
- Activity (MDA-MB-231 [11]): 0.26%
- Activity (MDA-MB-231 [12]): Active
- Activity (MDA-MB-231 [14]): Active
